Legend:
medaka Esr1 (mEsr1) [1] = target: T1, medaka Esr1 (mEsr1) (Oryzias latipes, UniProt P50241); assay: cell-based; design: species or system Japanese medaka (Oryzias latipes)
T1 sequence (P50241 1-620): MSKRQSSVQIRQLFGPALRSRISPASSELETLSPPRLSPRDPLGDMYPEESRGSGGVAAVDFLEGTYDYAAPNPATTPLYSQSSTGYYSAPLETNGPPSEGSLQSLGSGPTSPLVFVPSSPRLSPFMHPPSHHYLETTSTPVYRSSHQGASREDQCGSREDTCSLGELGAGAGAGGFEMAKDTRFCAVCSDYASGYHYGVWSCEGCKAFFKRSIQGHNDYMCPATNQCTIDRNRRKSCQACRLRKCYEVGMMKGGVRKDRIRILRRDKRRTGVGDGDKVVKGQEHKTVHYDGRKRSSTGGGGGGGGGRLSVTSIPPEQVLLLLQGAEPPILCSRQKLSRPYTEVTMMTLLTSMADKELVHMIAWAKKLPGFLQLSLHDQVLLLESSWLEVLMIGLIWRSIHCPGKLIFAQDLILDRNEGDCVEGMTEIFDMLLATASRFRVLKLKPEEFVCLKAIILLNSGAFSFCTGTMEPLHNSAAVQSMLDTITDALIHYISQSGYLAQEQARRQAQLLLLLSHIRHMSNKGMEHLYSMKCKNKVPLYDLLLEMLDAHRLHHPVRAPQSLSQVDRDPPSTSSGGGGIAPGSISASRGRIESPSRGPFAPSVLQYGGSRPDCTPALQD

medaka Esr1 (mEsr1) [2] = target: T1, medaka Esr1 (mEsr1); assay: Medaka Esr1 reporter gene assay, antagonist assay; type: cell-based, Japanese medaka (Oryzias latipes); settings: E2 spiked at 1.0 nM (B); MAC = 1.0 × 10^−5 M
medaka ARβ (mArβ) [3] = target: T2, medaka ARβ (mArβ) (Oryzias latipes, UniProt D1MV73); assay: Medaka ARβ reporter gene assay, agonist assay; type: cell-based, Japanese medaka (Oryzias latipes); settings: MAC = 1.0 × 10^−5 M
T2 sequence (D1MV73 1-744): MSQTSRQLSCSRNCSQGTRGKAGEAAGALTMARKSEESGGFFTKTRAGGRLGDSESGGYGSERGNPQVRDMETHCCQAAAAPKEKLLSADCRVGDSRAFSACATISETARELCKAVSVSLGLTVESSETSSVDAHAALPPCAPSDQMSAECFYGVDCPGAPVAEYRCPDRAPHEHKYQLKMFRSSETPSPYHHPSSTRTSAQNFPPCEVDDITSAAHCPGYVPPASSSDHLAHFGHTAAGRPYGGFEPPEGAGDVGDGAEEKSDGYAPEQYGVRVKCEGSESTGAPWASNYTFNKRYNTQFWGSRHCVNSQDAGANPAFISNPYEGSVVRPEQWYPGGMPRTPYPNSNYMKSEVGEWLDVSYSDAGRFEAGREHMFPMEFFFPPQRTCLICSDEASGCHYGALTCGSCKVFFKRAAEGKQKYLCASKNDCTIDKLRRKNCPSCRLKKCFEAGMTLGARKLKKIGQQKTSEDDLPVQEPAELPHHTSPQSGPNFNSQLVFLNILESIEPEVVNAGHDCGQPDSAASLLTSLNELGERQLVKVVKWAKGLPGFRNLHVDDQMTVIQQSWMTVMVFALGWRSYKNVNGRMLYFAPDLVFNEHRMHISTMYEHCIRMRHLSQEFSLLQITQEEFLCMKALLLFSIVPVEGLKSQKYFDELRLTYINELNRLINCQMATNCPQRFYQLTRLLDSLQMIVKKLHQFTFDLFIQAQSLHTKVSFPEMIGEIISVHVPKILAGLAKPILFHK

medaka ARβ (mArβ) [4] = target: T2, medaka ARβ (mArβ); assay: Medaka ARβ reporter gene assay, antagonist assay; type: cell-based, Japanese medaka (Oryzias latipes)
[5] = system: Japanese medaka (Oryzias latipes); assay: Fish Short‐Term Reproduction Assay; type: in vivo; settings: for LOECREPRO: LOEC on reproduction (fecundity and/or fertility); for minimal effective concentration: Oryzias latipes, 504 h, read-out: LOECmVTG; for LOECTOX: lowest observed effect concentration on mortality; for GSI Female / GSI Male / HSI Female / HSI Male / Length Female / Length Male / Weight Female / Weight Male: completion of exposure
[6] = 4.67 mg/L measured, 21 d, sig. ↑ vs control
[7] = measured concentration 0.155 mg/L
[8] = measured concentration 0.826 mg/L
[9] = measured concentration 4.67 mg/L
[10] = measured concentration 25.3 μg/L
[11] = measured concentration 82.3 μg/L
[12] = measured concentration 250 μg/L

With `CC(C)(c1ccc(O)cc1)c1ccc(O)cc1` [BPA, Bisphenol A] the EC50 (medaka Esr1 (mEsr1) [1]) was 0.086 µM, the “In vitro positive: Esr” value (medaka Esr1 (mEsr1) [1]; mode of action in which EC50 or PC10 was obtained in RGA) was “Esr” and the Antagonistic activity (medaka Esr1 (mEsr1) [2]) was “NE (MAC = 1.0 × 10^−5 M)^(B)”. The Agonistic activity (medaka ARβ (mArβ) [3]) was “NE (MAC = 1.0 × 10^−5 M)”, the IC50 (medaka ARβ (mArβ) [4]) was 7 µM and the “In vitro positive: aAr” value (medaka ARβ (mArβ) [4]; mode of action in which IC50 or IC30 was obtained in RGA) was “aAr”. The “Antagonistic activity on mArβ (in words)” value (medaka ARβ (mArβ) [4]; transcriptional activity on mArβ by 11KT) was “inhibitory potency”, the Fertility rate ([5]; 0.155 mg/L measured, 21 d) was 96 ± 2.1% and the “Hepatic VTG, female” value ([5]; 0.155 mg/L measured, 21 d) was 435 ± 65 ng/mg‐liver. The “Hepatic VTG, male” value ([5]; 0.155 mg/L measured, 21 d) was 0.5 ± 0.0 ng/mg‐liver, the Mortality ([5]; 0.155 mg/L measured, 21 d) was 17% and the “Mortality, number of dead fish” value ([5]; 0.155 mg/L measured, 21 d) was 4. The “Number of total eggs (per female per day)” value ([5]; 0.155 mg/L measured, 21 d) was 14 ± 1.8, the “SSC female (joint plates with papillary processes)” value (shortened to “SSC female”) ([5]; 0.155 mg/L measured, 21 d) was 0 ± 0 and the “SSC male (joint plates with papillary processes)” value (“SSC male” for short) ([5]; 0.155 mg/L measured, 21 d) was 74 ± 3.6. The Fertility rate ([5]; 0.826 mg/L measured, 21 d) was 94 ± 1.9%, the “Hepatic VTG, female” value ([5]; 0.826 mg/L measured, 21 d) was 768 ± 297 ng/mg‐liver and the “Hepatic VTG, male” value ([5]; 0.826 mg/L measured, 21 d) was 0.5 ± 0.0 ng/mg‐liver. For the same molecule, the Mortality ([5]; 0.826 mg/L measured, 21 d) was 8.3%, the “Mortality, number of dead fish” value ([5]; 0.826 mg/L measured, 21 d) was 2 and the “Number of total eggs (per female per day)” value ([5]; 0.826 mg/L measured, 21 d) was 14 ± 1.6. The “SSC female” value ([5]; 0.826 mg/L measured, 21 d) was 0 ± 0, the “SSC male” value ([5]; 0.826 mg/L measured, 21 d) was 71 ± 4.2 and the “Hepatic VTG, female” value ([5]; 4.67 mg/L measured, 21 d) was 3,456 ng/mg‐liver. The “SSC female” value ([5]; 4.67 mg/L measured, 21 d) was 0 ± 0, the “SSC male” value ([5]; 4.67 mg/L measured, 21 d) was 76 ± 5.7 and the “Hepatic VTG, male” value [5, 6] was 2,804 ± 811 ng/mg‐liver. The Mortality [5, 6] was 71%, the “Mortality, number of dead fish” value [5, 6] was 17 and the Fertility rate ([5]; 4.67 mg/L measured, 21 d, sig. ↓ vs control) was 59 ± 25%. For the same molecule, the “Fecundity, number of total eggs (in words)” value ([5]; 21 d) was “statistically significant decrease”, the “LOEC, elevated hepatic VTG in males” value ([5]; 21 d) was 4.67 mg/L and the LOECREPRO [5] was 4,670 μg/L. The minimal effective concentration [5] was 4.67 µg/mL, the “Fertility rate (in words)” value ([5]; at concentrations that did not affect number of total eggs) was “significant decrease” and the LOECTOX [5] was 4,670 μg/L. The “GSI Female” value [5, 7] was 6.8 ± 0.5%, the “GSI Male” value [5, 7] was 0.91 ± 0.13% and the “HSI Female” value [5, 7] was 3.4 ± 0.46%. The “HSI Male” value [5, 7] was 2.1 ± 0.40%, the “Length Female” value [5, 7] was 31.7 ± 0.9 mm and the “Length Male” value [5, 7] was 33.2 ± 0.9 mm. The “Weight Female” value [5, 7] was 313 ± 23 mg, the “Weight Male” value [5, 7] was 290 ± 23 mg and the “GSI Female” value [5, 8] was 6.0 ± 1.0%. For the same molecule, the “GSI Male” value [5, 8] was 0.80 ± 0.23%, the “HSI Female” value [5, 8] was 3.3 ± 0.75% and the “HSI Male” value [5, 8] was 2.3 ± 0.45%. The “Length Female” value [5, 8] was 32.0 ± 0.9 mm, the “Length Male” value [5, 8] was 32.5 ± 0.9 mm and the “Weight Female” value [5, 8] was 342 ± 20 mg. For the same molecule, the “Weight Male” value [5, 8] was 310 ± 10 mg, the “GSI Female” value [5, 9] was 2.3% and the “GSI Male” value [5, 9] was 0.77 ± 0.23%. For the same molecule, the “HSI Female” value [5, 9] was 4.8%, the “HSI Male” value [5, 9] was 3.4 ± 1.15% and the “Length Female” value [5, 9] was 30.6 mm. The “Length Male” value [5, 9] was 33.6 ± 1.9 mm, the “Weight Female” value [5, 9] was 281 mg and the “Weight Male” value [5, 9] was 370 ± 72 mg.

For `CC(C)(C)CC(C)(C)c1ccc(O)cc1` [Chemical 4tOP, 4‐tert‐Octylphenol], the Agonistic activity (medaka ARβ (mArβ) [3]) was “NE (MAC = 1.0 × 10^−5 M)”, the Antagonistic activity (medaka ARβ (mArβ) [4]; 11‐KT spiked at 50 nM (D), MAC = 1.0 × 10^−5 M) was “NE (MAC = 1.0 × 10^−5 M)^(D)” and the Fertility rate ([5]; 25.3 μg/L measured, 21 d) was 91 ± 5.1%. The “Hepatic VTG, female” value ([5]; 25.3 μg/L measured, 21 d) was 3,710 ± 617 ng/mg‐liver, the “Hepatic VTG, male” value ([5]; 25.3 μg/L measured, 21 d) was 3.2 ± 2.2 ng/mg‐liver and the Mortality ([5]; 25.3 μg/L measured, 21 d) was 0.0%. The “Mortality, number of dead fish” value ([5]; 25.3 μg/L measured, 21 d) was 0, the “Number of fertilized eggs (per female per day)” value ([5]; 25.3 μg/L measured, 21 d) was 24 ± 3.5 and the “Number of total eggs (per female per day)” value ([5]; 25.3 μg/L measured, 21 d) was 26 ± 3.2. For the same molecule, the “SSC female” value ([5]; 25.3 μg/L measured, 21 d) was 0 ± 0, the “SSC male” value ([5]; 25.3 μg/L measured, 21 d) was 99 ± 4.1 and the Fertility rate ([5]; 82.3 μg/L measured, 21 d) was 92 ± 2.1%. The “Hepatic VTG, female” value ([5]; 82.3 μg/L measured, 21 d) was 4,380 ± 1,350 ng/mg‐liver, the Mortality ([5]; 82.3 μg/L measured, 21 d) was 4.2% and the “Mortality, number of dead fish” value ([5]; 82.3 μg/L measured, 21 d) was 1. The “Number of fertilized eggs (per female per day)” value ([5]; 82.3 μg/L measured, 21 d) was 24 ± 1.5, the “Number of total eggs (per female per day)” value ([5]; 82.3 μg/L measured, 21 d) was 27 ± 1.3 and the “SSC female” value ([5]; 82.3 μg/L measured, 21 d) was 0 ± 0. For the same molecule, the “Hepatic VTG, male” value ([5]; 82.3 μg/L measured, 21 d, sig. ↑ vs control) was 5.6 ± 1.9 ng/mg‐liver, the Fertility rate ([5]; 250 μg/L measured, 21 d) was 89 ± 3.3% and the “Hepatic VTG, female” value ([5]; 250 μg/L measured, 21 d) was 5,290 ± 2030 ng/mg‐liver. The Mortality ([5]; 250 μg/L measured, 21 d) was 0.0%, the “Mortality, number of dead fish” value ([5]; 250 μg/L measured, 21 d) was 0 and the “Number of fertilized eggs (per female per day)” value ([5]; 250 μg/L measured, 21 d) was 21 ± 2.6. For the same molecule, the “Number of total eggs (per female per day)” value ([5]; 250 μg/L measured, 21 d) was 23 ± 2.6, the “SSC female” value ([5]; 250 μg/L measured, 21 d) was 0 ± 0 and the “SSC male” value ([5]; 250 μg/L measured, 21 d) was 98 ± 8.5. The “LOEC, elevated hepatic VTG in males” value ([5]; 21 d) was 0.0823 mg/L, the LOECREPRO [5] was “ND (>250) μg/L” and the minimal effective concentration [5] was 0.0823 µg/mL. The LOECTOX [5] was “ND (>250) μg/L”, the “GSI Female” value [5, 10] was 11.4 ± 1.6% and the “GSI Male” value [5, 10] was 0.83 ± 0.11%. For the same molecule, the “HSI Female” value [5, 10] was 4.6 ± 0.82%, the “HSI Male” value [5, 10] was 2.1 ± 0.16% and the “Length Female” value [5, 10] was 37.8 ± 0.5 mm. For the same molecule, the “Length Male” value [5, 10] was 37.0 ± 0.9 mm, the “Weight Female” value [5, 10] was 625 ± 55 mg and the “Weight Male” value [5, 10] was 608 ± 31 mg. For the same molecule, the “GSI Female” value [5, 11] was 10.7 ± 0.4%, the “GSI Male” value [5, 11] was 0.81 ± 0.08% and the “HSI Female” value [5, 11] was 4.1 ± 0.58%. The “HSI Male” value [5, 11] was 2.6 ± 0.10%, the “Length Female” value [5, 11] was 37.0 ± 0.2 mm and the “Length Male” value [5, 11] was 37.9 ± 0.6 mm. The “Weight Female” value [5, 11] was 599 ± 16 mg, the “Weight Male” value [5, 11] was 630 ± 44 mg and the “GSI Female” value [5, 12] was 11.1 ± 2.0%. The “GSI Male” value [5, 12] was 0.81 ± 0.08%, the “HSI Female” value [5, 12] was 4.5 ± 0.29% and the “HSI Male” value [5, 12] was 2.9 ± 0.28%. The “Length Female” value [5, 12] was 36.7 ± 0.5 mm, the “Length Male” value [5, 12] was 37.4 ± 0.4 mm and the “Weight Female” value [5, 12] was 605 ± 10 mg. The “Weight Male” value [5, 12] was 626 ± 21 mg.

From PMC9297976 (Journal of Applied Toxicology, 2021)
